{"source": "patent US6825230B2", "about": "“Spiro and dispiro 1,2,4-trixolane antimalarials” (Medicines for Malaria Venture MMV, priority 2002, dated 2004)", "key": {"[1]": {"experiment": "Differential scanning calorimetry (DSC) thermal stability", "assay_type": "physicochemical", "conditions": "thermal decomposition"}, "P. berghei ANKA strain": {"tested_on": "P. berghei ANKA strain", "experiment": "Onset of action and recrudescence experiment, single 100 mg/kg po", "assay_type": "in vivo, Plasmodium berghei", "conditions": "single 100 mg/kg po (SSV) on day +3 post-infection; recrudescence = >5% parasitemia; followed up to 60 days; groups of five"}, "[2]": {"tested_on": "Schistosoma mansoni adult worms (49-day-old)", "experiment": "Effect on adult schistosomes (49-day-old) in infected mice", "assay_type": "in vivo", "procedure": "Mice were infected with 100 Schistosoma mansoni cercariae on day 49 post-treatment. Each group was treated per os with OZ compounds at single doses of 200, 400, and 600 mg/kg. Untreated mice served as the control. All groups were killed 4 weeks after treatment and the liver and intestine were removed and separated. The liver and intestine were compressed and alive male and female worms could be seen and counted."}, "[3]": {"tested_on": "ANKA strain of P. berghei", "experiment": "Single dose STI in vivo screen in infected mice", "design": "species or system Plasmodium berghei"}, "Schistosoma japonicum": {"tested_on": "Schistosoma japonicum", "experiment": "Effect in mice infected with Schistosoma japonicum", "assay_type": "in vivo", "conditions": "for MFWB (mean female worm burden) x ± SD: control 11.6 ± 2.4; for MTWB (mean total worm burden) x ± SD: control 26.6 ± 4.2"}, "[4]": {"tested_on": "Schistosoma mansoni 21-day-old schistosomules", "experiment": "Effect on 21-day-old schistosomules in infected mice", "assay_type": "in vivo", "conditions": "single 200 mg/kg per os, 21-day-old schistosomules", "procedure": "Mice were infected with 100 Schistosoma mansoni cercariae on day 21 post-treatment. Each group was treated per os with trioxolanes at a single dose of 200 mg/kg. […] All groups were killed 4 weeks after treatment and the liver and intestine were removed and separated. The liver and intestine were compressed and alive male and female worms could be seen and counted. The effect of the compounds was evaluated by mean total and female worm burden."}, "[5]": {"tested_on": "ANKA strain of Plasmodium berghei", "experiment": "Single dose ED50/ED90/ED99 determination in infected mice", "assay_type": "in vivo", "conditions": "single dose po in SSV on day 1 post-infection, parasitemia day 3, nonlinear fitting", "procedure,_shortened": "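Moro SPF or NMRI mice (three per group) infected with P. berghei ANKA were dosed once on day 1 post-infection in SSV (0.5% CMC, 0.5% benzyl alcohol, 0.4% Tween 80, 0.9% NaCl). Parasitemia reduction was scored on day 3; ED values (mg/kg) came from nonlinear fitting.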"}, "[6]": {"tested_on": "chloroquine-sensitive NF54 strain of P. falciparum", "experiment": "In vitro antimalarial semiautomated microdilution assay ([3H]-hypoxanthine incorporation), NF54 strain", "assay_type": "cell-based, Plasmodium falciparum", "conditions": "Plasmodium falciparum, NF54, 72 h, read-out: IC50 (ng/ml) NF54, chloroquine-sensitive NF54 strain, 72 h incubation", "procedure,_shortened": "(§1)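 Logit regression analysis yields the fifty percent inhibitory concentration. Compounds are tested by semiautomated microdilution on intraerythrocytic parasites drawn from asynchronous stock cultures, measuring [3H]-hypoxanthine incorporation.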"}, "S. haematobium": {"tested_on": "S. haematobium", "experiment": "In vivo activity against S. haematobium", "design": "species or system Schistosoma haematobium", "conditions": "1 x 200 mg/kg p.o."}, "[7]": {"tested_on": "chloroquine-resistant K1 strain of P. falciparum", "experiment": "In vitro antimalarial semiautomated microdilution assay ([3H]-hypoxanthine incorporation), K1 strain", "assay_type": "cell-based, Plasmodium falciparum", "conditions": "Plasmodium falciparum, K1, 72 h, read-out: IC50 (ng/ml) K1, chloroquine-resistant K1 strain, 72 h incubation", "procedure,_shortened": "as §1"}, "[8]": {"conditions": "1 x 200 mg/kg p.o. (table footnote)"}, "[9]": {"conditions": "1 x 400 mg/kg p.o. (table footnote)"}, "[10]": {"conditions": "age of worm 7 days, 200 mg/kg x 1"}, "[11]": {"conditions": "age of worm 35 days, 200 mg/kg x 1"}, "[12]": {"conditions": "age of worm 35 days, 400 mg/kg x 1"}}, "data": [{"smiles": "C[C@@H]1CC[C@H]2[C@@H](C)C(=O)O[C@@H]3O[C@@]4(C)CC[C@@H]1[C@]32OO4", "note": "[Artemisinin, artemisinin, reference compound]", "values": [{"measurement": "Tm, dec (DSC)", "setting": "[1]", "value": 181, "unit": "°C"}, {"measurement": "Time of Recrudescence", "setting": "P. berghei ANKA strain", "value": 8.4, "unit": "days"}]}, {"smiles": "Cc1ccc(S(=O)(=O)O)cc1.NC[C@H]1CC[C@]2(CC1)OOC1(O2)C2CC3CC(C2)CC1C3", "note": "(stereo partly shown) [OZ207]", "values": [{"measurement": "% reduction of adult worms growth at day 49 after per os application of 200 mg/kg, TWR (%)", "setting": "[2]; single 200 mg/kg per os, 49-day-old adults, total worm reduction rate", "value": 32, "unit": "%"}, {"measurement": "Adult worms day 49, per os 200 mg/kg, DEAD WORM (%)", "setting": "[2]; single 200 mg/kg per os, percentage of dead worm in the liver", "value": 17, "unit": "%"}, {"measurement": "% reduction of adult worms growth at day 49 after per os application of 400 mg/kg, TWR (%)", "setting": "[2]; single 400 mg/kg per os, 49-day-old adults, total worm reduction rate", "value": 35, "unit": "%"}, {"measurement": "Adult worms day 49, per os 400 mg/kg, DEAD WORM (%)", "setting": "[2]; single 400 mg/kg per os, percentage of dead worm in the liver", "value": 21, "unit": "%"}, {"measurement": "% reduction of adult worms growth at day 49 after per os application of 600 mg/kg, TWR (%)", "setting": "[2]; single 600 mg/kg per os, 49-day-old adults, total worm reduction rate", "value": "11/ %"}, {"measurement": "Adult worms day 49, per os 600 mg/kg, DEAD WORM (%)", "setting": "[2]; single 600 mg/kg per os, percentage of dead worm in the liver", "value": "24++ %"}, {"measurement": "Survival (days) 10 mg/kg po", "setting": "[3]; single 10 mg/kg po in 3% ethanol and 7% Tween 80, untreated 6-7 days", "value": 9.3, "unit": "days"}, {"measurement": "Activity (%) 10 mg/kg po", "setting": "[3]; single 10 mg/kg po in 3% ethanol and 7% Tween 80 on day 1 post-infection, percent reduction in parasitemia on day 3", "value": 99.96, "unit": "%"}, {"measurement": "Survival (days) 10 mg/kg SSV po", "setting": "[3]; single 10 mg/kg po in SSV, untreated 6-7 days", "value": 12.0, "unit": "days"}, {"measurement": "Activity (%) 10 mg/kg SSV po", "setting": "[3]; single 10 mg/kg po in standard suspending vehicle (SSV) on day 1 post-infection, percent reduction in parasitemia on day 3", "value": 99.98, "unit": "%"}, {"measurement": "Survival (days) 10 mg/kg sc", "setting": "[3]; single 10 mg/kg sc in 3% ethanol and 7% Tween 80, untreated 6-7 days", "value": 11.3, "unit": "days"}, {"measurement": "Activity (%) 10 mg/kg sc", "setting": "[3]; single 10 mg/kg sc in 3% ethanol and 7% Tween 80 on day 1 post-infection, percent reduction in parasitemia on day 3", "value": 99.98, "unit": "%"}, {"measurement": "S. Japonicum FWR", "setting": "Schistosoma japonicum; [8]", "value": 95, "unit": "%"}, {"measurement": "S. Japonicum TWR", "setting": "Schistosoma japonicum; [8]", "value": 66, "unit": "%"}, {"measurement": "S. Japonicum FWR", "setting": "Schistosoma japonicum; [9]", "value": 94, "unit": "%"}, {"measurement": "S. Japonicum TWR", "setting": "Schistosoma japonicum; [9]", "value": 84, "unit": "%"}, {"measurement": "Mice without female worm", "setting": "Schistosoma japonicum; [10]", "value": "0/8"}, {"measurement": "MFWB (mean female worm burden) x ± SD", "setting": "Schistosoma japonicum; [10]", "value": "2.1 ± 1.0"}, {"measurement": "MTWB (mean total worm burden) x ± SD", "setting": "Schistosoma japonicum; [10]", "value": "5.4 ± 2.4"}, {"measurement": "Mice without female worm", "setting": "Schistosoma japonicum; [11]", "value": "4/7"}, {"measurement": "MFWB (mean female worm burden) x ± SD", "setting": "Schistosoma japonicum; [11]", "value": "0.6 ± 0.7"}, {"measurement": "MTWB (mean total worm burden) x ± SD", "setting": "Schistosoma japonicum; [11]", "value": "9.1 ± 3.9"}, {"measurement": "Mice without female worm", "setting": "Schistosoma japonicum; [12]", "value": "4/6"}, {"measurement": "MFWB (mean female worm burden) x ± SD", "setting": "Schistosoma japonicum; [12]", "value": "0.7 ± 1.2"}, {"measurement": "MTWB (mean total worm burden) x ± SD", "setting": "Schistosoma japonicum; [12]", "value": "4.3 ± 1.2"}, {"measurement": "% reduction of schistosomule growth at day 21 after per os application of 200 mg/kg, FWR (%)", "setting": "[4]; female worm reduction rate", "value": 100, "unit": "%"}, {"measurement": "% reduction of schistosomule growth at day 21 after per os application of 200 mg/kg, TWR (%)", "setting": "[4]; total worm reduction rate", "value": 93, "unit": "%"}, {"measurement": "ED50", "setting": "[5]; Plasmodium berghei, po", "value": 0.37, "unit": "mg/kg"}, {"measurement": "ED90", "setting": "[5]", "value": 1.2, "unit": "mg/kg"}, {"measurement": "ED99", "setting": "[5]", "value": 3.0, "unit": "mg/kg"}, {"measurement": "IC50", "setting": "[6]", "value": 0.57, "unit": "ng/mL"}, {"measurement": "S. haematobium DEAD WORM", "setting": "S. haematobium", "value": 68, "unit": "%"}, {"measurement": "S. haematobium TWR", "setting": "S. haematobium", "value": 73, "unit": "%"}, {"measurement": "IC50", "setting": "[7]", "value": 0.33, "unit": "ng/mL"}, {"measurement": "Time of Recrudescence (days)", "setting": "P. berghei ANKA strain", "value": "no recrudescence observed"}]}]}
